{
  "source": "paper PMC4871610",
  "about": "(Cell, 2015)",
  "key": {"[1]": {"biological_target": "T1, CutC (choline TMA lyase) (Proteus mirabilis, UniProt B4EYG1)", "T1 sequence (B4EYG1 1-1142)": "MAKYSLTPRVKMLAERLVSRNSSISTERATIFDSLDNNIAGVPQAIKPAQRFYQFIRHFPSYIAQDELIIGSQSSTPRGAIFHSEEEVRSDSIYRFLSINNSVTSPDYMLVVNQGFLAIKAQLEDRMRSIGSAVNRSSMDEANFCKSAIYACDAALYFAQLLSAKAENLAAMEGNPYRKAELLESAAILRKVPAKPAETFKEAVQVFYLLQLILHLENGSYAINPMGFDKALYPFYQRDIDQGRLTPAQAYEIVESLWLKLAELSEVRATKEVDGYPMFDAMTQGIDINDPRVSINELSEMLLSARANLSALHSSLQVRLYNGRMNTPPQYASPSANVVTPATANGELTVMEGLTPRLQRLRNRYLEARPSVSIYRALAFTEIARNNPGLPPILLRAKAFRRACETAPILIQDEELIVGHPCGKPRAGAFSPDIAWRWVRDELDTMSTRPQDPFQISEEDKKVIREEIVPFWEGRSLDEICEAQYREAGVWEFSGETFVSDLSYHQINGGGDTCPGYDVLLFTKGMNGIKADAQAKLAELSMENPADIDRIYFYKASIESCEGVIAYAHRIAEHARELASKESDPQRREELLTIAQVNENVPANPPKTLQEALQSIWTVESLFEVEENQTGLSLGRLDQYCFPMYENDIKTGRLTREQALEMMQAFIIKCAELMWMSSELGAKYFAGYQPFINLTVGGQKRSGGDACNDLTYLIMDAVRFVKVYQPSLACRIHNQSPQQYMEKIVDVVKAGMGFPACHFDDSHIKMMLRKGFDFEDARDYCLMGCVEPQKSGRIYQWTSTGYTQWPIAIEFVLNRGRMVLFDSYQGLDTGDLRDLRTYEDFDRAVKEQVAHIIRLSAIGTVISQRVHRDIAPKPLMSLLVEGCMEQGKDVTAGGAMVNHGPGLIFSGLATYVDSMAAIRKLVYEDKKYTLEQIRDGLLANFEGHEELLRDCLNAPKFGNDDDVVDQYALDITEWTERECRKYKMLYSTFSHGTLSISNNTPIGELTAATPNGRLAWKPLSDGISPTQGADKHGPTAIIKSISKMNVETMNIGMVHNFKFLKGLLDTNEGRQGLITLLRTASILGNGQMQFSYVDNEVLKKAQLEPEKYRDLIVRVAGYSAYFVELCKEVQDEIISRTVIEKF", "T1 sequence (B4EYG0 1-316 partner)": "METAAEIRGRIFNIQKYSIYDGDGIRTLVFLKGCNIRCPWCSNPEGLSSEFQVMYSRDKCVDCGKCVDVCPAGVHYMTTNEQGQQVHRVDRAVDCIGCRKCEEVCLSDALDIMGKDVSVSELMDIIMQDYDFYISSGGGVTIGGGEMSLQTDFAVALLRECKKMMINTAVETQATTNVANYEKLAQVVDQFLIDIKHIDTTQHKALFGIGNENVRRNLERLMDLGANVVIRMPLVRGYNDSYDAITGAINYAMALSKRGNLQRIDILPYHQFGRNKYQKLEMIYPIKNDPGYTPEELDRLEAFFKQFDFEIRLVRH", "experiment": "anaerobic d9-TMA production with purified CutC and CutD, LC/MS/MS", "assay_type": "biochemical"}, "[2]": {"biological_target": "T1, CutC (choline TMA lyase)", "experiment": "d9-TMA production from d9-choline in cutC/D-transformed E. coli lysate", "assay_type": "cell-based"}, "[3]": {"biological_target": "T1, CutC (choline TMA lyase)", "experiment": "d9-TMA production from d9-choline in cutC/D-transformed E. coli lysate, LC/MS/MS", "assay_type": "biochemical"}, "[4]": {"biological_target": "T2, YeaW (Escherichia coli, UniProt P0ABR7)", "T2 sequence (P0ABR7 1-374)": "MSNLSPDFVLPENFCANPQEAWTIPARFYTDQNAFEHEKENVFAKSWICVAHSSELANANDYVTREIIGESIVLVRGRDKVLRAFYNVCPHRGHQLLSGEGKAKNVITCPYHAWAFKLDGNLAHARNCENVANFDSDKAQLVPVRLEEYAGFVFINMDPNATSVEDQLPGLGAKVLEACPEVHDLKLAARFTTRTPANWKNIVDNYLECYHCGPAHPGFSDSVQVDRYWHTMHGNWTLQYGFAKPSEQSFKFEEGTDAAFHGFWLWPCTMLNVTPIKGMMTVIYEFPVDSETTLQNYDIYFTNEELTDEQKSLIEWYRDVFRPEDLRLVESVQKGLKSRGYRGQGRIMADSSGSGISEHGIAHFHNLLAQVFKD", "experiment": "d9-TMA production by purified YeaW/X, LC/MS/MS", "assay_type": "biochemical"}, "[5]": {"biological_target": "T1, CutC (choline TMA lyase)", "experiment": "d9-TMA production by purified CutC and CutD, LC/MS/MS", "assay_type": "biochemical"}},
  "note": "pIC50: −log10 of the molar value.",
  "data": [
    {"smiles": "CC(C)(C)CCO", "note": "[DMB, 3,3-dimethyl-1-butanol]", "values": [
      {"measurement": "pIC50", "setting": "[1]", "value": "~5.00"}
    ]},
    {"smiles": "C[P+](C)(C)CCO", "note": "[P-choline, (2-Hydroxyethyl)(trimethyl)phosphonium]", "values": [
      {"measurement": "d9-TMA production from d9-choline in cutC/D-transformed E. coli lysate (activity)", "setting": "[2]", "value": "phosphonium analogue of choline (P-choline) showed a unique effect by augmenting cutC/D choline TMA lyase activity"}
    ]},
    {"smiles": "C[Si](C)(C)CCO", "note": "[TMSi-ETOH, 2-(trimethylsilyl)ethanol]", "values": [
      {"measurement": "pIC50", "setting": "[3]", "value": "~5.00"}
    ]},
    {"smiles": "C[N+](C)(C)CC(O)CC(=O)[O-]", "note": "(centres unmarked) [carnitine]", "values": [
      {"measurement": "d9-TMA production by purified YeaW/X, LC/MS/MS", "setting": "[4]", "value": "Purified YeaW/X showed enzymatic cleavage of d9-carnitine"}
    ]},
    {"smiles": "C[N+](C)(C)CCO", "note": "[choline]", "values": [
      {"measurement": "d9-TMA production by purified CutC and CutD, LC/MS/MS", "setting": "[5]", "value": "both purified polypeptides showed dose-dependent inhibition in TMA production from either choline or GPC substrates"}
    ]}
  ]
}
